# In a compilation of properties of binary mixtures (doi:10.1021/acs.jced.3c00247):
# Experiment: xn = mol fraction of the nth substance listed
# Conditions: 100 kPa
smiles,measurement,setting,value
O + C[C@H](N)C(=O)[O-].C[N+](C)(C)CCO,viscosity,"288.09 K, x2 = 0",1.08 mPa·s
same,viscosity,"289.33 K, x2 = 0",1.05 mPa·s
same,viscosity,"290.56 K, x2 = 0",1.02 mPa·s
same,viscosity,"291.75 K, x2 = 0",0.98 mPa·s
same,viscosity,"292.93 K, x2 = 0",0.96 mPa·s
same,viscosity,"294.1 K, x2 = 0",0.93 mPa·s
same,viscosity,"295.28 K, x2 = 0",0.9 mPa·s
same,viscosity,"297.64 K, x2 = 0",0.86 mPa·s
same,viscosity,"298.81 K, x2 = 0",0.84 mPa·s
same,viscosity,"301.17 K, x2 = 0",0.8 mPa·s
same,viscosity,"302.34 K, x2 = 0",0.78 mPa·s
same,viscosity,"303.52 K, x2 = 0",0.77 mPa·s
same,viscosity,"304.69 K, x2 = 0",0.75 mPa·s
same,viscosity,"305.87 K, x2 = 0",0.74 mPa·s
same,viscosity,"308.22 K, x2 = 0",0.71 mPa·s
C[C@H](N)C(=O)[O-].C[N+](C)(C)CCO + O,viscosity,"287.92 K, x1 = 0.097",10.7 mPa·s
same,viscosity,"287.94 K, x1 = 0.198",60 mPa·s
same,viscosity,"288 K, x1 = 0.3748",345 mPa·s
same,viscosity,"288 K, x1 = 0.4948",710 mPa·s
same,viscosity,"288.02 K, x1 = 0.5975",1059 mPa·s
same,viscosity,"288.02 K, x1 = 0.8993",3070 mPa·s
same,viscosity,"288.06 K, x1 = 0.7994",2139 mPa·s
same,viscosity,"288.08 K, x1 = 0.692",1634 mPa·s
same,viscosity,"289.2 K, x1 = 0.198",57 mPa·s
same,viscosity,"289.22 K, x1 = 0.097",10.2 mPa·s
same,viscosity,"289.22 K, x1 = 0.3748",328 mPa·s
same,viscosity,"289.23 K, x1 = 0.2939",166 mPa·s
same,viscosity,"289.24 K, x1 = 0.4948",660 mPa·s
same,viscosity,"289.26 K, x1 = 0.8993",2817 mPa·s
same,viscosity,"289.29 K, x1 = 0.7994",1961 mPa·s
same,viscosity,"290.21 K, x1 = 1",4300 mPa·s
same,viscosity,"290.48 K, x1 = 0.198",53 mPa·s
same,viscosity,"290.48 K, x1 = 0.3748",300 mPa·s
same,viscosity,"290.5 K, x1 = 0.097",9.6 mPa·s
same,viscosity,"290.5 K, x1 = 0.4948",600 mPa·s
same,viscosity,"290.5 K, x1 = 0.5975",880 mPa·s
same,viscosity,"290.52 K, x1 = 0.8993",2510 mPa·s
same,viscosity,"290.54 K, x1 = 0.692",1293 mPa·s
same,viscosity,"291.71 K, x1 = 0.2939",140 mPa·s
same,viscosity,"291.71 K, x1 = 0.3748",274 mPa·s
same,viscosity,"291.72 K, x1 = 0.097",9.2 mPa·s
same,viscosity,"291.72 K, x1 = 0.198",50 mPa·s
same,viscosity,"291.72 K, x1 = 0.4948",540 mPa·s
same,viscosity,"291.72 K, x1 = 0.5975",790 mPa·s
same,viscosity,"291.73 K, x1 = 0.7994",1562 mPa·s
same,viscosity,"291.73 K, x1 = 0.8993",2231 mPa·s
same,viscosity,"291.74 K, x1 = 0.692",1150 mPa·s
same,viscosity,"292.02 K, x1 = 1",3052 mPa·s
same,viscosity,"292.32 K, x1 = 1",3520 mPa·s
same,viscosity,"292.91 K, x1 = 0.198",46 mPa·s
same,viscosity,"292.91 K, x1 = 0.2939",129 mPa·s
same,viscosity,"292.91 K, x1 = 0.3748",250 mPa·s
same,viscosity,"292.92 K, x1 = 0.7994",1393 mPa·s
same,viscosity,"292.92 K, x1 = 0.8993",1984 mPa·s
same,viscosity,"294.08 K, x1 = 1",2544 mPa·s
same,viscosity,"294.1 K, x1 = 0.198",43 mPa·s
same,viscosity,"294.1 K, x1 = 0.2939",119 mPa·s
same,viscosity,"294.1 K, x1 = 0.3748",230 mPa·s
same,viscosity,"294.1 K, x1 = 0.5975",650 mPa·s
same,viscosity,"294.1 K, x1 = 0.8993",1775 mPa·s
same,viscosity,"294.41 K, x1 = 1",2896 mPa·s
same,viscosity,"295.27 K, x1 = 0.097",8 mPa·s
same,viscosity,"295.27 K, x1 = 0.198",40.8 mPa·s
same,viscosity,"295.27 K, x1 = 0.2939",111 mPa·s
same,viscosity,"295.27 K, x1 = 0.3748",212 mPa·s
same,viscosity,"295.27 K, x1 = 0.4948",410 mPa·s
same,viscosity,"295.27 K, x1 = 0.5975",590 mPa·s
same,viscosity,"295.27 K, x1 = 0.692",840 mPa·s
same,viscosity,"295.27 K, x1 = 0.8993",1599 mPa·s
same,viscosity,"296.14 K, x1 = 1",2140 mPa·s
same,viscosity,"296.45 K, x1 = 0.097",7.7 mPa·s
same,viscosity,"296.45 K, x1 = 0.198",38.3 mPa·s
same,viscosity,"296.45 K, x1 = 0.2939",103 mPa·s
same,viscosity,"296.45 K, x1 = 0.3748",195 mPa·s
same,viscosity,"296.45 K, x1 = 0.5975",540 mPa·s
same,viscosity,"296.45 K, x1 = 0.692",760 mPa·s
same,viscosity,"296.45 K, x1 = 0.8993",1438 mPa·s
same,viscosity,"296.48 K, x1 = 1",2402 mPa·s
same,viscosity,"297.63 K, x1 = 0.198",36.2 mPa·s
same,viscosity,"297.63 K, x1 = 0.2939",96 mPa·s
same,viscosity,"297.63 K, x1 = 0.3748",181 mPa·s
same,viscosity,"297.63 K, x1 = 0.4948",347 mPa·s
same,viscosity,"297.63 K, x1 = 0.5975",490 mPa·s
same,viscosity,"297.63 K, x1 = 0.692",700 mPa·s
same,viscosity,"297.63 K, x1 = 0.7994",920 mPa·s
same,viscosity,"297.63 K, x1 = 0.8993",1302 mPa·s
same,viscosity,"298.2 K, x1 = 1",1806 mPa·s
same,viscosity,"298.54 K, x1 = 1",2000 mPa·s
same,viscosity,"298.8 K, x1 = 0.5975",450 mPa·s
same,viscosity,"298.8 K, x1 = 0.8993",1183 mPa·s
same,viscosity,"298.81 K, x1 = 0.097",7.1 mPa·s
same,viscosity,"298.81 K, x1 = 0.198",34.3 mPa·s
same,viscosity,"298.81 K, x1 = 0.3748",168 mPa·s
same,viscosity,"298.81 K, x1 = 0.4948",320 mPa·s
same,viscosity,"298.81 K, x1 = 0.692",630 mPa·s
same,viscosity,"299.98 K, x1 = 0.198",32.3 mPa·s
same,viscosity,"299.98 K, x1 = 0.2939",84 mPa·s
same,viscosity,"299.98 K, x1 = 0.4948",294 mPa·s
same,viscosity,"299.98 K, x1 = 0.5975",410 mPa·s
same,viscosity,"299.98 K, x1 = 0.692",580 mPa·s
same,viscosity,"299.98 K, x1 = 0.7994",760 mPa·s
same,viscosity,"299.98 K, x1 = 0.8993",1071 mPa·s
same,viscosity,"300.61 K, x1 = 1",1681 mPa·s
same,viscosity,"301.16 K, x1 = 0.097",6.6 mPa·s
same,viscosity,"301.16 K, x1 = 0.198",30.6 mPa·s
same,viscosity,"301.16 K, x1 = 0.2939",79 mPa·s
same,viscosity,"301.16 K, x1 = 0.3748",145 mPa·s
same,viscosity,"301.16 K, x1 = 0.4948",271 mPa·s
same,viscosity,"301.16 K, x1 = 0.5975",379 mPa·s
same,viscosity,"301.16 K, x1 = 0.7994",690 mPa·s
same,viscosity,"301.16 K, x1 = 0.8993",970 mPa·s
same,viscosity,"302.33 K, x1 = 0.198",29 mPa·s
same,viscosity,"302.33 K, x1 = 0.2939",74 mPa·s
same,viscosity,"302.33 K, x1 = 0.4948",251 mPa·s
same,viscosity,"302.33 K, x1 = 0.5975",348 mPa·s
same,viscosity,"302.33 K, x1 = 0.692",480 mPa·s
same,viscosity,"302.33 K, x1 = 0.7994",630 mPa·s
same,viscosity,"302.33 K, x1 = 0.8993",890 mPa·s
same,viscosity,"302.34 K, x1 = 0.097",6.4 mPa·s
same,viscosity,"302.34 K, x1 = 1",1310 mPa·s
same,viscosity,"302.66 K, x1 = 1",1421 mPa·s
same,viscosity,"303.51 K, x1 = 0.097",6.2 mPa·s
same,viscosity,"303.51 K, x1 = 0.198",27.6 mPa·s
same,viscosity,"303.51 K, x1 = 0.2939",69 mPa·s
same,viscosity,"303.51 K, x1 = 0.4948",233 mPa·s
same,viscosity,"303.51 K, x1 = 0.5975",322 mPa·s
same,viscosity,"303.51 K, x1 = 0.692",440 mPa·s
same,viscosity,"303.51 K, x1 = 0.8993",810 mPa·s
same,viscosity,"304.41 K, x1 = 1",1119 mPa·s
same,viscosity,"304.69 K, x1 = 0.097",6 mPa·s
same,viscosity,"304.69 K, x1 = 0.198",26.2 mPa·s
same,viscosity,"304.69 K, x1 = 0.2939",65 mPa·s
same,viscosity,"304.69 K, x1 = 0.3748",117 mPa·s
same,viscosity,"304.69 K, x1 = 0.4948",216 mPa·s
same,viscosity,"304.69 K, x1 = 0.5975",297 mPa·s
same,viscosity,"304.69 K, x1 = 0.692",410 mPa·s
same,viscosity,"304.69 K, x1 = 0.7994",530 mPa·s
same,viscosity,"304.69 K, x1 = 0.8993",740 mPa·s
same,viscosity,"305.86 K, x1 = 0.198",24.9 mPa·s
same,viscosity,"305.86 K, x1 = 0.2939",61 mPa·s
same,viscosity,"305.86 K, x1 = 0.5975",274 mPa·s
same,viscosity,"305.86 K, x1 = 0.692",375 mPa·s
same,viscosity,"305.86 K, x1 = 0.7994",480 mPa·s
same,viscosity,"305.87 K, x1 = 0.097",5.7 mPa·s
same,viscosity,"306.48 K, x1 = 1",960 mPa·s
same,viscosity,"306.78 K, x1 = 1",1030 mPa·s
same,viscosity,"307.04 K, x1 = 0.097",5.6 mPa·s
same,viscosity,"307.04 K, x1 = 0.198",23.7 mPa·s
same,viscosity,"307.04 K, x1 = 0.2939",58 mPa·s
same,viscosity,"307.04 K, x1 = 0.4948",186 mPa·s
same,viscosity,"307.04 K, x1 = 0.692",347 mPa·s
same,viscosity,"307.04 K, x1 = 0.7994",440 mPa·s
same,viscosity,"308.21 K, x1 = 0.4948",173 mPa·s
same,viscosity,"308.21 K, x1 = 0.5975",236 mPa·s
same,viscosity,"308.21 K, x1 = 0.692",321 mPa·s
same,viscosity,"308.22 K, x1 = 0.097",5.4 mPa·s
same,viscosity,"308.22 K, x1 = 0.198",22.6 mPa·s
same,viscosity,"308.22 K, x1 = 0.2939",54 mPa·s
same,viscosity,"308.22 K, x1 = 0.3748",96 mPa·s
same,viscosity,"308.22 K, x1 = 0.7994",410 mPa·s
same,viscosity,"308.22 K, x1 = 0.8993",570 mPa·s
same,viscosity,"308.54 K, x1 = 1",830 mPa·s
same,viscosity,"308.84 K, x1 = 1",880 mPa·s
same,viscosity,"310.61 K, x1 = 1",720 mPa·s
same,viscosity,"310.9 K, x1 = 1",760 mPa·s
same,viscosity,"312.67 K, x1 = 1",630 mPa·s
same,viscosity,"312.95 K, x1 = 1",660 mPa·s
same,viscosity,"314.74 K, x1 = 1",550 mPa·s
same,viscosity,"315.01 K, x1 = 1",570 mPa·s
same,viscosity,"316.82 K, x1 = 1",480 mPa·s
same,viscosity,"317.07 K, x1 = 1",500 mPa·s
same,viscosity,"318.91 K, x1 = 1",420 mPa·s
same,viscosity,"319.13 K, x1 = 1",440 mPa·s
same,viscosity,"321.04 K, x1 = 1",374 mPa·s
same,viscosity,"321.19 K, x1 = 1",387 mPa·s
same,viscosity,"323.25 K, x1 = 1",342 mPa·s
